Results taken from ChEMBL document CHEMBL3853271, “Recent progress towards an effective treatment of amyotrophic lateral sclerosis using the SOD1 mouse model in a preclinical setting” (2016).

Assays:
Mus musculus [1] = experiment: Neuroprotective activity in transgenic mouse amyotrophic lateral sclerosis model harboring human SOD1 H46R mutant assessed as increase in survival rate at 0.1 mg/kg, ig administered daily starting at day of disease onset until disease end stage relative to control; format: functional
Mus musculus [2] = experiment: (§1) Neuroprotective activity in transgenic mouse amyotrophic lateral sclerosis model harboring human SOD1 H46R mutant assessed as increase in survival rate at 0.5 mg/kg, ig administered daily starting at day of disease onset until disease end stage relative to control; format: functional
Mus musculus [3] = experiment: as §1, with “ChAT-positive motor neurons loss” for “increase”, “anterior horn” for “survival rate”, “by immunostaining method (reference value: 43%)” for “relative to control”; format: functional
Mus musculus [4] = experiment: Neuroprotective activity in transgenic mouse amyotrophic lateral sclerosis model harboring SOD1 G93A mutant assessed as increase in survival rate at 60 mg/kg, administered via oral gavage started from first day of symptomatic onset until disease end stage relative to control; format: functional
Mus musculus [5] = experiment: (§2) Neuroprotective activity in transgenic mouse amyotrophic lateral sclerosis model harboring SOD1 G93A mutant assessed as death of motor neurons in lumbar spinal cord at 10 mg/kg, po measured at 7 days post disease onset by immunostaining method (reference value: 58%); format: functional
Mus musculus [6] = experiment: (§3) Neuroprotective activity in transgenic mouse amyotrophic lateral sclerosis model harboring SOD1 G94A mutant assessed as prolongation of survival at 10 ug/kg, administered through gastric tube daily started between day 88 to 106 of disease onset until disease end stage relative to control; format: functional
Mus musculus [7] = experiment: as §3, with “harboring human” for “harboring”, “H46R” for “G94A”, “1 to 100” for “10”, “121” for “88”, “130” for “106”; format: functional, Stomach
Mus musculus [8] = experiment: as §2, with “4” for “10”, “ip administered every other day started from postnatal day 40 until” for “po measured at 7 days post”, “end stage” for “onset”, “71%)” for “58%)”; format: functional
Mus musculus [9] = experiment: (§4) Neuroprotective activity in transgenic C57/BL6 mouse amyotrophic lateral sclerosis model harboring SOD1 G93A mutant assessed as decrease in misfolded SOD1 levels in spinal cord at 4 mg/kg, ip administered twice weekly started from postnatal day 40 until disease end stage by immunoprecipitation method relative to control; format: functional; design: scale not given: the % may be the effect or the level left
[10] = as §4, with “upregulation of HSP70” for “decrease in misfolded SOD1”, “Western blot” for “immunoprecipitation”; format: functional, organism-based
[11] = as §4, with “upregulation of HSP25” for “decrease in misfolded SOD1”, “Western blot” for “immunoprecipitation”; format: functional, organism-based

SMILES: Cc1cc(C)c(OCC(=O)Nc2nc(-c3ccccn3)cs2)c(C)c1
- Activity (Mus musculus [1]): 11%
- Activity (Mus musculus [2]): 16%
- Activity (Mus musculus [3]): 23%

SMILES: CCCCC1OC(=O)c2ccccc21 (racemic) [RAC-3-N-BUTYLPHTHALIDE]
- Activity (Mus musculus [4]): 42%

SMILES: O=C(/C=C/c1ccc(O)c(O)c1)OCCc1ccccc1 [CAFFEIC ACID PHENETHYL ESTER]
- Activity (Mus musculus [5]): 10%

SMILES: Cc1cc(C)c(N(C)CC(=O)Nc2nc(-c3ccccn3)c[nH]2)c(C)c1.Cl.Cl.Cl
- Activity (Mus musculus [6]): 14%
- Activity (Mus musculus [7]): 20%

SMILES: N=C(N)N/N=C/c1c(Cl)cccc1Cl [GUANABENZ]
- Activity (Mus musculus [8]): 44%

SMILES: CC1=C(CO)C(=O)O[C@@H]([C@@H](C)[C@H]2CC[C@H]3[C@@H]4C[C@H]5O[C@]56[C@@H](O)C=CC(=O)[C@]6(C)[C@H]4CC[C@]23C)C1 [WITHAFERIN A]
- Activity (Mus musculus [9]): 39%
- fold change (FC) [10]: 2.2
- fold change (FC) [11]: 2.6
